Patent publication US11298344B2, “Composition for inhibiting sodium leak channel (NALCN), comprising n-benzhydryl quinuclidine derivatives” (Research & Business Foundation Sungkyunkwan University, priority 2018, dated 2022)

Tests used:
Type in all cases: cell-based
[1] = tested on: transient receptor potential canonical (TRPC) 3, 4, 5, 6, or 7 channel; experiment: Patch-clamp of HEK293T cells transfected with M3R and a TRPC channel, CCh-induced inward current; conditions: holding potential −60 mV, second CCh stimulus, Na+ and K+ removed, cesium added
Protocol: (§1) HEK293T cells were cultured in a DMEM ([…]) medium containing 10% FBS and 1% antibiotics using an incubator having a condition of 37° C. and 5% CO2. NALCN and TRPC cDNAs were respectively constructed using a vector that expresses GFP under an independent promoter. Lipofectamine 2000, which is used as a transfection reagent, was mixed with each plasmid and the cells were treated with the mixture. Then, after 48 hours, expression was identified. In order to identify whether normal transfection with each plasmid occurred, only the cells in which GFP was expressed were selected.
(§2) The HEK293T cells were transfected with combinations of M3R and NALCN, M3R and GFP, and M3R and TRPCs.
From the above, it was possible to identify NALCN inhibitory effects of the NBQN derivatives. Furthermore, in the present example, it was intended to identify whether the NBQN derivatives have specific and exclusive inhibitory activity against NALCN. […]

NALCN [2] = molecular target: T1, NALCN (Rattus norvegicus, UniProt Q6Q760); experiment: Patch-clamp of HEK293T cells transfected with M3R and NALCN, CCh-induced inward current; conditions: for inhibitory effect on a CCh-induced NALCN current: FIG. 6; for compound concentration which decreases half of a NALCN current (rank order): CCh-induced current; for activation of NALCN by CCh in the presence of the compound: compound present before CCh
T1 construct: expressed in transfected cells; host or cells: HEK293T
Protocol: as §1, §2
Among the transfected HEK293T cells acquired in Experimental Method 2, cells expressing GFP were selected, and a patch pipette formed of a thin glass tube was inserted into a membrane surface. After setting −80 mV as a holding potential, a current was measured. Under the holding potential, treatment with carbachol (CCh) which is an activator of M3R was performed to identify a current induced by NALCN. An extracellular solution was treated with 50 μM of L703606, and change of current caused by CCh was identified. In addition, based on voltage-independent characteristics of NALCN, currents obtained by varying the voltage from −80 mV to +10 mV were measured, and change of current caused by the treatment with L703606 was recorded. All data were presented as mean±standard deviation calculated after treatment with an inhibitor relative to a control (** P<0.01).
HEK293T cells are non-neuronal cells commonly used for transfection of genes. Based on the report that a NALCN channel is activated by M3R in pancreatic beta cells MIN6 and HEK293 cells, M3R and NALCN plasmids that had been cloned from rat brain were co-transfected into HEK293T cells to identify whether L703606 inhibits a NALCN current activated by M3R.

NALCN [3] = molecular target: T2, NALCN (Mus musculus, UniProt Q8BXR5); experiment: Patch-clamp of isolated midbrain dopaminergic neurons (background and NT-induced currents, membrane voltage)
T2 construct: from tissue; host or cells: acutely isolated dopaminergic neurons of mouse substantia nigra pars compacta (TH-GFP mice)
Protocol: In order to obtain midbrain dopaminergic neurons from mice, substantia nigra pars compacta within mouse midbrain in which GFP was expressed due to tyrosine hydroxylase (TH) promoter was cut into sections. In order to isolate tissue, the sections were subjected to treatment with a highly-concentrated glucose solution at 36.5° C. which contains papain (4 U ml-1) for 20 minutes or longer. The enzymatically-treated sections of substantia nigra pars compacta were washed with a highly-concentrated glucose solution, and then slowly agitated using Pasteur pipettes with various size holes so that the respective dopaminergic neurons were isolated. All animal experiments were conducted under approval of the Institutional Animal Care and Use Committee (IACUC) of Sungkyunkwan University School of Medicine.
Among the dopaminergic neurons isolated in Experimental Method 1, dopaminergic neurons expressing GFP were selected, and a patch pipette formed of thin glass tube was inserted into a membrane surface. After setting −60 mV as a holding potential, a current was measured. A background current was identified under the holding voltage. After treatment with NT, a current was identified. Then, additionally, an extracellular solution was treated with 10 μM of L703606, and change of current was identified. In addition, the above procedure was repeated by replacing sodium ion with N-methyl-D-glucamine (NMDG). After treating the extracellular solution with 0.5 μM of tetrodotoxin (TTX) and 30 μM of ZD7288 which are a voltage-gated sodium channel inhibitor and an HCN channel inhibitor, respectively, a voltage was measured. Additionally, change of voltage at the time of treatment with 10 μM of L703606 was identified. All data were presented as mean±standard deviation calculated at the time of treatment with the inhibitors and replacement of sodium ion, relative to a control. (* P<0.05, ** P<0.01, *** P<0.001).
In addition, it was possible to identify that at the time of replacing sodium with NMDG, the background current was close to 0 pA, and an inward current was not induced by the treatment with NT. From this, it can be seen that the background current is generated by sodium ions.

[4] = holding potential −60 mV, 10 μM of L703606
[5] = holding potential −60 mV, 20 μM of PP1

T1 sequence (Q6Q760 whole entry): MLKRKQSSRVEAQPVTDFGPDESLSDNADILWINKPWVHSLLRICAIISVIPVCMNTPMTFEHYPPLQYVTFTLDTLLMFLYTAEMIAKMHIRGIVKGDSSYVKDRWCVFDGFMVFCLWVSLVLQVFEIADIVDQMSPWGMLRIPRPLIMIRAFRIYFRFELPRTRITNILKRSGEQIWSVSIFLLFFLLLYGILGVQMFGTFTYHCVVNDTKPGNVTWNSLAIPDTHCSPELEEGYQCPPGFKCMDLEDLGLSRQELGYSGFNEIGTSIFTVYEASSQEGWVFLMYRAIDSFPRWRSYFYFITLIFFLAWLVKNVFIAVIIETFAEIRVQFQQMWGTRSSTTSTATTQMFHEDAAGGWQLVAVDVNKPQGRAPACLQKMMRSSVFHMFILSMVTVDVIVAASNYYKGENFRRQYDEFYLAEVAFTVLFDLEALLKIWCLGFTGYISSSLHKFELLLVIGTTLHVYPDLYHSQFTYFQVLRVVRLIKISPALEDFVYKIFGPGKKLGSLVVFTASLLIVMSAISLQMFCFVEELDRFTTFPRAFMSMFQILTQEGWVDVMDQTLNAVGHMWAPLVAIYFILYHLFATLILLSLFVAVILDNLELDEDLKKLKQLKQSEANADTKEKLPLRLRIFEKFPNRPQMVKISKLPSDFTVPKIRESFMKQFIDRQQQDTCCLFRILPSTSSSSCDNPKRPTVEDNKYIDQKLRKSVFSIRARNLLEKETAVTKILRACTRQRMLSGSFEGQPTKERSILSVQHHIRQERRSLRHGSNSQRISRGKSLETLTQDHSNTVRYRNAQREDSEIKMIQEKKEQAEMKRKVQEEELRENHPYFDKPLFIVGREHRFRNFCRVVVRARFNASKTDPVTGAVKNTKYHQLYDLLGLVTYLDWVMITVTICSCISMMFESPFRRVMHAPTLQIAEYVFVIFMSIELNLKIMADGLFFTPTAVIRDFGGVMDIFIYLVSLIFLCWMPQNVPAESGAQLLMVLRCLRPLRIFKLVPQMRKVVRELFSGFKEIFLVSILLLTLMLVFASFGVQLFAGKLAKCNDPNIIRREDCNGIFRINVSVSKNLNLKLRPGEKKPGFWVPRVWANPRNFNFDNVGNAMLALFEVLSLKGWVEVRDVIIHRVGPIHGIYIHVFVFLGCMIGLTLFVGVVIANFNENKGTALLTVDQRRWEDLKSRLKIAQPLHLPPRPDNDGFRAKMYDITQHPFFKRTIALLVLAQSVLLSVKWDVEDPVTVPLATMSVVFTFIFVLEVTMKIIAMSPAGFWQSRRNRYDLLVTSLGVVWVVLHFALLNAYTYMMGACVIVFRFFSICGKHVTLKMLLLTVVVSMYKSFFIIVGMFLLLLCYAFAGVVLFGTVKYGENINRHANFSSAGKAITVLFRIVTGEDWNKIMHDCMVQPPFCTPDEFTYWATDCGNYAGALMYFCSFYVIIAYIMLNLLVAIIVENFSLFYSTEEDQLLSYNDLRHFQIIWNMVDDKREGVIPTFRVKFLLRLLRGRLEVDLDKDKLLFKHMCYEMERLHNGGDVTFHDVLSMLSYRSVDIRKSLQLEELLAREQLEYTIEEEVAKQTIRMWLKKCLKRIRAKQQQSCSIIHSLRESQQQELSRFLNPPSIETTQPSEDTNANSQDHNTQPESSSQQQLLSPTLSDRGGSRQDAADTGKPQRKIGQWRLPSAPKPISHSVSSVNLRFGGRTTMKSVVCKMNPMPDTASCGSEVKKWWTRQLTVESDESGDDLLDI

COc1ccc(CCCOC(Cn2ccnc2)c2ccc(OC)cc2)cc1 (centres unmarked) [SKF96365]
CCh-induced inward current (TRPC current activated by M3R) [1]: not created at all

COc1ccccc1CN[C@H]1CCCN[C@H]1c1ccccc1 [CP99994, (2S,3S)-N-[(2-methoxyphenyl)methyl]-2-phenylpiperidin-3-amine]
inhibitory effect on a CCh-induced NALCN current (NALCN [2]; M3R-NALCN HEK293T cells): insignificant inhibitory effect

COc1ccccc1CNC1C2CCN(CC2)C1C(c1ccccc1)c1ccccc1 (centres unmarked) [CP96345, 2-(Diphenylmethyl)-N-(2-methoxybenzyl)quinuclidin-3-amine]
compound concentration which decreases half of a NALCN current (rank order) (NALCN [2]; M3R-NALCN HEK293T cells): next highest inhibitory effects | inhibitory effect on a CCh-induced NALCN current (NALCN [2]; M3R-NALCN HEK293T cells): inhibit a CCh-induced NALCN current in a similar fashion

Ic1ccccc1CNC1C2CCN(CC2)C1C(c1ccccc1)c1ccccc1 (centres unmarked) [L703606, 2-(Diphenylmethyl)-N-(2-iodobenzyl)quinuclidin-3-amine]
inhibition at 50 µM (NALCN [2]; HEK-293T, cells that co-express M3R-NALCN, holding potential −80 mV, 50 μM of L703606): ≥ 90% | CCh-induced inward current in the presence of PP1, after treatment with L703606 (NALCN [2]; M3R-NALCN HEK293T cells): returning to the background current again immediately | compound concentration which decreases half of a NALCN current (rank order) (NALCN [2]; M3R-NALCN HEK293T cells): highest inhibitory effect | inhibitory effect on a CCh-induced NALCN current (NALCN [2]; M3R-NALCN HEK293T cells): inhibit a CCh-induced NALCN current in a similar fashion | activation of NALCN by CCh in the presence of the compound (NALCN [2]; M3R-NALCN HEK293T cells): not possible to observe activation of NALCN | CCh-induced NALCN current where voltage is changed (NALCN [2]; voltage from −80 mV to +10 mV): decreased to a control level | spontaneous activity voltage (NALCN [3]; 10 μM of L703606): completely inhibited | background current (NALCN [3]; [4]): decreased | inward current induced by NT (NALCN [3]; [4]): not induced | membrane potential (NALCN [3]; spontaneous activity stopped by 0.5 μM TTX and 30 μM ZD7288, 10 μM of L703606): induced hyperpolarization of membrane potential

COc1ccc(C(C)(C)C)cc1CN[C@H]1C2CCN(CC2)[C@H]1C(c1ccccc1)c1ccccc1 [Maropitant, (2S,3S)-2-(Diphenylmethyl)-N-[2-methoxy-5-(2-methyl-2-propanyl)benzyl]quinuclidin-3-amine]
compound concentration which decreases half of a NALCN current (rank order) (NALCN [2]; M3R-NALCN HEK293T cells): next highest inhibitory effects | inhibitory effect on a CCh-induced NALCN current (NALCN [2]; M3R-NALCN HEK293T cells): inhibit a CCh-induced NALCN current in a similar fashion

Cc1ccc(-c2nn(C(C)(C)C)c3ncnc(N)c23)cc1 [PP1]
activation of NALCN by CCh in the presence of the compound (NALCN [2]; M3R-NALCN HEK293T cells): strong inward current induced by activation of NALCN | inhibition of the CCh-induced inward current (NALCN [2]; cells that co-express M3R-NALCN, treatment with PP1): did not greatly inhibit | background current (NALCN [3]; [5]): little effect on the background current | inward current induced by NT stimulus (NALCN [3]; [5]): remarkably decreased
